Residues, ends and D or L forms follow the SMILES beside them.

In patent US20250152675A1, “I-TYPE RECOMBINANT COLLAGEN WITH HIGH TRANSDERMAL ABSORBABILITY, AND USE THEREOF” (XI'AN GIANT BIOGENE TECHNOLOLGY CO., LTD, priority 2022, published 2025) one finds 24h penetration amount data, which are given here for 1 compound.

The nature of the series: Transdermal penetration through ex vivo mouse skin in a single-chamber diffusion cell, content by BCA kit. The series is classed as in vitro ADME, Kunming mice. Conditions: collagen peptide 5 mg/ml in 0.9% NaCl, diffusion area 2.0 cm^2, 37.5° C. In a few lines:
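Abdominal skin from Kunming mice (20–22 g), glycerol-treated and stored at −20° C up to 7 days, mounted in a 2.0 cm² diffusion cell with 0.9% NaCl receiver at 37.5° C, 100 rpm. Peptides applied at 5 mg/ml in 0.9% NaCl; permeated protein in receiver measured by BCA after 24 h.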

For the compound `CC(C)[C@H](NC(=O)CNC(=O)[C@H](CCCNC(=N)N)NC(=O)[C@H](CCC(=O)O)NC(=O)CN)C(=O)N[C@@H](CCC(N)=O)C(=O)NCC(=O)N1CCC[C@H]1C(=O)N1CCC[C@H]1C(=O)NCC(=O)N1CCC[C@H]1C(=O)N[C@@H](C)C(=O)NCC(=O)N1CCC[C@H]1C(=O)N[C@@H](CCCNC(=N)N)C(=O)NCC(=O)N[C@@H](C)C(=O)N[C@@H](CC(N)=O)C(=O)NCC(=O)N[C@@H](C)C(=O)N1CCC[C@H]1C(=O)NCC(=O)N[C@@H](CC(N)=O)C(=O)N[C@@H](CC(=O)O)C(=O)NCC(=O)N[C@@H](C)C(=O)N[C@@H](CCCCN)C(=O)NCC(=O)N[C@@H](CC(=O)O)C(=O)N[C@@H](C)C(=O)NCC(=O)N[C@@H](C)C(=O)N1CCC[C@H]1C(=O)NCC(=O)N[C@@H](C)C(=O)N1CCC[C@H]1C(=O)O` [compound 27] (H-GERGVQGPPGPAGPRGANGAPGNDGAKGDAGAPGAP-OH; N-terminus and C-terminus assumed), the 24h penetration amount was 2186.24 µg.
